Here are results for 9 molecules from patent US7892833B2, “Using inhibitors of histone deacetylases for the suppression therapy of inherited disease predisposing conditions” (TopoTarget Germany AG, priority 2003, dated 2011).

Entries after “also recorded” stand apart in the source; their conditions may differ.

Series [1] relates to IL-2. Briefly: IL-2 ELISA of PBL supernatants. It is filed as cell-based, human. The conditions noted are these: for secretion of IL-2 / concentration of maximal inhibition of IL-2 expression: CD3/CD28; for secretion of IL-2 / IL-2 secretion, dose-response / concentration of maximal inhibition of IL-2 expression: FIG. 6; for IL-2 secretion, dose-response / concentration of maximal inhibition of IL-2 expression: PBLs; for IL-2 secretion, dose-response: 2 h preincubation, CD3 and CD28 mAbs 24 h. Here is the method:
(§1) Monocyte and macrophage depleted peripheral blood mononuclear cells were obtained from consenting adults via separation using Ficoll-Hypaque. The peripheral blood mononuclear cells (PBMC) fraction was washed and seeded in 9 cm petri dishes. After an incubation of 2 hours at 37° C. to remove most of the monocytes, macrophages, and B-cells, the non-adherent cells were collected and cultured in 175cm^2 flasks for 2 days. Cells were harvested and adjusted to 3 million cells per ml. Aliquots of 500μl were transferred to each well of 24-well flat bottom plates. Peripheral blood lymphocytes (PBL's) were treated with various concentrations of HDAC inhibitors as indicated. After a 2 hour incubation time at 37°C cells were stimulated with phorbol 12-myristate 13-acetate (PMA) / ionomycin (Ion) or activated via T cell receptor (TCR/CD3) complex with 10μg/m1 anti-CD3 mAb (OKT3) and 2.5μg/ml anti-CD28 mAb. After 24 hours at 37° C. the supernatant was removed and frozen for cytokine assays. Cell pellets were lysed and total RNA was isolated using the RNeasy mini kit from Qiagen.
(§2) To perform ELISA's, supernatants of treated and untreated PBL's were collected and IL-2 as well as TNF-α were measured using the Duo Set ELISA Development System (R&D Systems) as described by the manufacturer.

For series [2] the following is noted: EP application No. 03014278.0; cited from earlier work.
Series [3] concerns Human immortalized keratinocytes (HaCaT cells). Briefly: Cytokine mRNA by semiquantitative RT-PCR in LPS-stimulated keratinocytes. The format is cell-based. The note with it: 4 h preincubation (200 nM TSA or 5 mM 2PPA), LPS 24 h; for level of IL-6 mRNA / level of TNF-α mRNA: vs. untreated stimulated control. Here is the method: Human immortalized keratinocytes (HaCaT cells) were seeded at a density of 2.5 million cells per ml into 75 cm^2 flasks. […] After 24 hours at 37° C. cells were lysed and total RNA was isolated using the RNeasy mini kit from Qiagen.
(§3) One microgram of total RNA was transcribed to cDNA by standard methods using reverse transcriptase and an oligo-dT primer (Invitrogen). For semiquantitative PCR, 2 μl of cDNA was amplified by PCR using specific primers. Primers for PCR were synthesized by MWG and are as follows: […]

The subject of series [4] is TNF-α. The series is described as follows: TNF-α ELISA of PBL supernatants. The format is cell-based, human. The conditions noted are these: for TNF-α secretion, dose-response / concentration of maximal inhibition of TNF-α expression: PBLs, FIG. 6; for TNF-α secretion, dose-response: 2 h preincubation, CD3 and CD28 mAbs 24 h; for concentration of maximal inhibition of TNF-α expression: CD3/CD28. How it is done:
as §1, §2
(In an ELISA, binding on a coated surface is turned into a signal by an enzyme label.)

Series [5] has as its system Peripheral blood lymphocytes (PBL's). The series is described as follows: Cytokine mRNA by semiquantitative RT-PCR in PMA/Ion-stimulated PBLs. It is filed as cell-based, human. The note with it: for IL-6 mRNA / PMA/Ion mediated stimulation of IL-4 mRNA: 2 h preincubation, PMA/Ion 24 h; for modulation of cytokine expression: PMA/Ion, FIGS. 4A and B. How it is done:
as §1, §3

In series [6] the test system is cell lines with proven mutations of crucial genes. The series is described as follows: Cell viability assay (MTT test). The format is cell-based. The conditions noted are these: 0.5 to 3 mM, 40 h to 70 h, all the cell lines tested, vs. untreated cells. Here is the method: In FIG. 1 cell lines are listed with proven mutations of crucial genes which in an inherited way establish a condition that predisposes a person to develop a disorder. The cells were grown in the respective medium as described in FIG. 1.
The cell lines listed in table 1 were seeded in 96 well plates at a density of 1×10^4 cells/well in normal growth medium. 2-propyl pentanoic acid was added at final concentrations between 0.5 and 3 mM to triplicate samples and the cells were incubated for 40 h to 70 h. Control cells were grown in the absence of 2-propyl pentanoic acid. Ten μl of 10 mg/ml 3-(4,5-dimethylthiazole-2-yl)-2,5 diphenyltetrazolium bromide (MTT) (Sigma, Deisenhofen, Germany) in PBS were added to each well and the cells were incubated for another 3 h. Cells were lysed by the addition of 90 μl of lysis buffer (20% SDS in 50% dimethyl formamide, pH 4.7). After solubilization of the formazan product, the absorption at 590 nm was determined in a microplate reader (Dynatech, Denkendorf, Germany) and the relative amount of viable cells in comparison to cells grown without the addition of 2-propyl pentanoic acid was determined.

Series [7] deals with Peripheral blood cells. Briefly: Cytokine ELISA and RT-PCR in peripheral blood cells from a patient treated with 2PPA. The format is in vivo, human. How it is done: The cells were either left unstimulated or stimulated with CD3 and CD28 antibodies. After 24 hours at 37° C. the supernatant was collected and the secretion of IL-2 and TNF-α was quantified by ELISA (R&D Systems) (FIGS. 10A and B).
Total RNA from unstimulated and CD3/CD28 stimulated cells was isolated using the RNeasy mini kit (Qiagen). One microgram of total RNA was converted to cDNA by standard methods using reverse transcriptase and an oligo-dT primer (Invitrogen). For semiquantitative PCR, 2 μl of cDNA were amplified by PCR using the specific primers as described above (FIG. 10C).

Series [8] concerns C57BL/6J-APC^min mice. The series is described as follows: APC^min mouse model, adenoma count after four weeks of treatment. The format is in vivo. Here is the method: Ten to sixteen weeks old age- and sex-matched heterozygous C57BL/6J-APC^min mice (Jackson Laboratories, Bar Harbor, Me.) were either left untreated or were treated with 2-PPA or Celecoxib. Control animal were injected (i.p.) with PBS. 2-PPA was injected as isotonic aequous solution of the sodium salt (2×400 mg/kg/day) for four weeks, while Celecoxib was fed to the animals ad libidum at 1250 ppm (0, 12%) for four weeks. At necropsy entire intestinal tracts were opened longitudinally and fixed in 10% phosphate buffered formaldehyde for 24 h. Polyp contrast was increased performing a 1 min staining in 0.1% methylene blue prior to determination of polyp numbers and sizes under a dissecting microscope by two independent observers unaware of the treatment that the mice had received.

Series [9] concerns Acetylated histones H3 and H4 and the marker gene HDAC-2. The series is described as follows: Western blot of peripheral blood cells from patients treated with 2PPA (phase I/II). The format is in vivo, human. The note with it: 2PPA intravenously, before, 6 h, 24 h, 48 h. Here is the method:
Whole cell extracts were prepared by lysis of cells in RIPA buffer including protease inhibitors. Lysates were separated by SDS gel electrophoresis and transferred onto PVDF membranes. Acetylated histones H3 and H4 and the marker gene HDAC-2 were detected by western blot analysis using an anti-acetylated H3 antibody (Upstate, #06-942), an anti-acetylated H4 antibody (clon T25; patent application EP 02.021984.6), and an anti-HDAC-2 antibody (SCBT, SC-7899). As an equal loading control PVDF membranes were stained with Coomassie (FIG. 9).

The subject of series [10] is stage III/IV non-small cell lung cancer. The note with it: monotherapy; Keer et al., 2002; cited from earlier work.
The subject of series [11] is PPARδ. The note with it: cited from earlier work.
Series [12] has as its system acute promyelocytic leukemia. The conditions noted are these: PML-RAR patient with multiple relapses after retinoic acid; Warrell et al., 1998; cited from earlier work.
[13] abbreviates: 1 mM, other experiments, PMA/ION and CD3/CD28, FIG. 7.
Where [14] appears, read: starting at 24 hours of 2PPA treatment.

As for `CCCC(CCC)C(=O)O` [2PPA, 2-propyl-pentanoic acid], the “secretion of IL-2” value in [1] (0.5 mM) is “only moderate effect”. The “secretion of IL-2” value in [1] (1 mM) is given as “only moderate effect”. Further, the IL-2 secretion result in series [1] (setting [13]) was “significant decrease”. For the same molecule, in series [1] (5 mM), the “secretion of IL-2” value is listed as “significantly reduced”. The “IL-2 secretion, dose-response” value in [1] is recorded as “dose-dependent inhibition”. Further, the skin permeation entry in series [2] was “permeates human skin effectively”. Further, in [3], the “mRNA transcript of IFN-γ” value is “significantly reduced”, the “level of IL-6 mRNA” value is “significant decrease” and the “level of TNF-α mRNA” value is on record as “significant decrease”. Also, the TNF-α secretion result in series [4] (setting [13]) is “significant decrease”. In [4], the “TNF-α secretion, dose-response” value is “dose-dependent inhibition”. Besides, in [5], the “IL-6 mRNA” value was “decreased IL-6 mRNA back to the level seen in the unstimulated sample” and the “PMA/Ion mediated stimulation of IL-4 mRNA” value is listed as “significantly reduced”. Further, in series [6], the “inhibition of cell viability” value is given as 20-80%. Also, in series [7] (CD3/CD28 stimulated), the “IL-2 mRNA transcripts” value was “decrease” and the “TNF-α mRNA transcripts” value is given as “decrease”. For the same molecule, in series [7] (CD3/CD28 stimulated 24 h), the “IL-2 in the culture supernatant (ELISA)” value was “modulates the expression” and the “TNF-α in the culture supernatant (ELISA)” value is “modulates the expression”. In series [7] (setting [14]), the “cytokine mRNA expression of IFN-γ” value is given as “significantly reduced” and the “cytokine mRNA expression of IL-4” value was “significantly reduced”. For the same molecule, the “number of colorectal adenomas” value in series [8] (APC^min mice treated for 4 weeks, FIG. 2 legend) was “reduction in the number of colorectal adenomas”. Moreover, the “number of adenomas in the small intestine” value in series [8] (four weeks, 2-PPA sodium salt i.p. 2×400 mg/kg/day, Celecoxib 1250 ppm in feed, FIG. 2A, 400 mg/kg/day) is listed as “reduces adenoma formation; also recorded: clearly reduces the number of adenomas”. For the same molecule, the “abnormalities in the gastrointestinal tract” value in [8] (mouse, in vivo) was “did not show any abnormalities in the gastrointestinal tract”. For the same molecule, in series [9], the “Histone H3 and H4 acetylation in peripheral blood cells” value was “Histone H3 and H4 hyperacetylation”; the “marker protein HDAC-2 in peripheral blood cells” value is recorded as “down-regulation of the marker protein HDAC-2”.

Consider `Cc1ccc(-c2cc(C(F)(F)F)nn2-c2ccc(S(N)(=O)=O)cc2)cc1` [Celecoxib], for which the “abnormalities in the gastrointestinal tract” value in series [8] (APC^min mice after four weeks of treatment, FIG. 2B) was “intensely inflated stomach, small intestine, and colon”.

For `O=C(CCC1CCCC1)NO` [G2M-701], in [1], the “IL-2 secretion, dose-response” value was “dose-dependent inhibition” and the “concentration of maximal inhibition of IL-2 expression” value is 6 µM. Further, in [4], the “TNF-α secretion, dose-response” value was “dose-dependent inhibition” and the “concentration of maximal inhibition of TNF-α expression” value stood at 6 µM. Besides, the “modulation of cytokine expression” value in series [5] is on record as “can modulate cytokine expression”.

Take `O=C(CCC1CCCCC1)NO` [G2M-702]: in series [1], the “IL-2 secretion, dose-response” value is “dose-dependent inhibition” and the “concentration of maximal inhibition of IL-2 expression” value came to 3 µM. Besides, in [4], the “TNF-α secretion, dose-response” value is “dose-dependent inhibition” and the “concentration of maximal inhibition of TNF-α expression” value came out at 3 µM. The “modulation of cytokine expression” value in series [5] is listed as “can modulate cytokine expression”.

For the molecule `O=C(/C=C/C1CCCCC1)NO` [G2M-707], in series [1], the “IL-2 secretion, dose-response” value is given as “dose-dependent inhibition” and the “concentration of maximal inhibition of IL-2 expression” value amounted to 1 µM. Besides, in series [4], the “TNF-α secretion, dose-response” value was “dose-dependent inhibition” and the “concentration of maximal inhibition of TNF-α expression” value was 1 µM. For the same molecule, the “modulation of cytokine expression” value in series [5] was “can modulate cytokine expression”.

As for `CCCC(=O)OCOC(=O)C(C)(C)C` [Pivanex, Pivaloyloxymethyl butyrate], in series [10], the clinical activity entry is recorded as “activity in stage III/IV non-small cell lung cancer”.

On to `O=C(CCCCCCC(=O)Nc1ccccc1)NO` [SAHA, suberoylanilide hydroxamic acid], for which the “modulation of cytokine expression” value in series [5] is reported as “can modulate cytokine expression”.

For the molecule `CC(/C=C/C(=O)NO)=C\[C@@H](C)C(=O)c1ccc(N(C)C)cc1` [TSA, Trichostatin A], in series [3], the “mRNA transcript of IFN-γ” value was “virtually unaffected”, the “level of IL-6 mRNA” value is recorded as “significant decrease” and the “level of TNF-α mRNA” value is given as “significant decrease”. Moreover, in series [5], the “IL-6 mRNA” value is “only moderate effects” and the “PMA/Ion mediated stimulation of IL-4 mRNA” value is “significantly reduced”. For the same molecule, the “activation of PPARδ” value in series [11] is given as “activates PPARδ”.

As for phenylbutyrate, the clinical outcome in series [12] is given as “complete remission of the leukemia”.
